Measurements as given in PubChem BioAssay AID1745844 (Carcinogenic Potency Database (CPDB), 2022).
Activity calls are given as the source filed them. No rule for the calls is given here.

Tested on: rodent lifetime carcinogenesis bioassay, tumor incidence TD50
Experiment: carcinogenic potency in animals, long-term in vivo studies, CPDB compilation (AID 1745844)

CN(C)c1ccc(Cc2ccc(N(C)C)cc2)cc1 showed a TD50 (mouse, strain B6C3F1, females, in feed, site: any site (literature study), lesion: several types, types named in the paper, dosed 78 weeks, study length 91 weeks) of 280 mg/kg/day, a TD50 (mouse, strain B6C3F1, females, in feed, site: liver, lesion: hepatocellular adenoma + hepatocellular carcinoma + neoplastic nodule, dosed 78 weeks, study length 91 weeks) of 207 mg/kg/day and a TD50 (mouse, strain B6C3F1, females, in feed, site: liver, lesion: hepatocellular adenoma + hepatocellular carcinoma, dosed 78 weeks, study length 91 weeks) of 207 mg/kg/day. The TD50 (mouse, strain B6C3F1, females, in feed, site: lung, lesion: alveolar/bronchiolar adenoma + alveolar/bronchiolar carcinoma, dosed 78 weeks, study length 91 weeks) was 1080 mg/kg/day, the TD50 (mouse, strain B6C3F1, males, in feed, site: any site (literature study), lesion: several types, types named in the paper, dosed 78 weeks, study length 91 weeks) was 367 mg/kg/day (inactive) and the TD50 (mouse, strain B6C3F1, males, in feed, site: liver, lesion: hepatocellular adenoma + hepatocellular carcinoma + neoplastic nodule, dosed 78 weeks, study length 91 weeks) was 558 mg/kg/day. For the same molecule, the TD50 (mouse, strain B6C3F1, males, in feed, site: lung, lesion: alveolar/bronchiolar adenoma + alveolar/bronchiolar carcinoma, dosed 78 weeks, study length 91 weeks) was 1410 mg/kg/day, the TD50 (rat, strain Fischer 344, females, in feed, site: any site (literature study), lesion: several types, types named in the paper, dosed 59 weeks, study length 104 weeks) was 41.7 mg/kg/day and the TD50 (rat, strain Fischer 344, females, in feed, site: liver, lesion: hepatocellular adenoma + hepatocellular carcinoma + neoplastic nodule, dosed 59 weeks, study length 104 weeks) was 203 mg/kg/day. It also gave a TD50 (rat, strain Fischer 344, females, in feed, site: liver, lesion: neoplastic nodule, dosed 59 weeks, study length 104 weeks) of 203 mg/kg/day, a TD50 (rat, strain Fischer 344, females, in feed, site: thyroid gland, lesion: follicular-cell adenoma + follicular-cell carcinoma, dosed 59 weeks, study length 104 weeks) of 16.4 mg/kg/day and a TD50 (rat, strain Fischer 344, females, in feed, site: thyroid gland, lesion: follicular-cell carcinoma, dosed 59 weeks, study length 104 weeks) of 27.7 mg/kg/day. For the same molecule, the TD50 (rat, strain Fischer 344, males, in feed, site: any site (literature study), lesion: several types, types named in the paper, dosed 59 weeks, study length 104 weeks) was 42.9 mg/kg/day, the TD50 (rat, strain Fischer 344, males, in feed, site: thyroid gland, lesion: follicular-cell adenoma + follicular-cell carcinoma, dosed 59 weeks, study length 104 weeks) was 16.5 mg/kg/day and the TD50 (rat, strain Fischer 344, males, in feed, site: thyroid gland, lesion: follicular-cell carcinoma, dosed 59 weeks, study length 104 weeks) was 28.6 mg/kg/day.
For CC(C)C[C@H]1C(=O)N2CCC[C@H]2[C@]2(O)O[C@](NC(=O)[C@@H]3C=C4c5cccc6[nH]c(Br)c(c56)C[C@H]4N(C)C3)(C(C)C)C(=O)N12, the TD50 (mouse, strain OF1, females, in feed, site: any site (literature study), lesion: several types, types named in the paper, dosed 74 weeks, study length 74 weeks) was 175 mg/kg/day (inactive), the carcinogen call (mouse, strain OF1, females, in feed, site: liver, lesion: neoplastic nodule, dosed 74 weeks, study length 74 weeks) was “negative (inactive)” and the carcinogen call (mouse, strain OF1, females, in feed, site: lung, lesion: adenoma, dosed 74 weeks, study length 74 weeks) was “negative (inactive)”. The TD50 (mouse, strain OF1, males, in feed, site: any site (literature study), lesion: several types, types named in the paper, dosed 74 weeks, study length 74 weeks) was 68 mg/kg/day (inactive), the TD50 (mouse, strain OF1, males, in feed, site: liver, lesion: neoplastic nodule, dosed 74 weeks, study length 74 weeks) was 308 mg/kg/day (inactive) and the TD50 (mouse, strain OF1, males, in feed, site: lung, lesion: adenoma, dosed 74 weeks, study length 74 weeks) was 618 mg/kg/day (inactive). For the same molecule, the TD50 (rat, strain OFA (Sprague-Dawley derived), females, in feed, site: uterus, lesion: malignant tumor, dosed 100 weeks, study length 100 weeks) was 117 mg/kg/day and the TD50 (rat, strain OFA (Sprague-Dawley derived), females, in feed, site: uterus, lesion: several types, types named in the paper, dosed 100 weeks, study length 100 weeks) was 33.7 mg/kg/day.
CN(CCCC(=O)O)N=O showed a TD50 (rat, strain F344/DuCrj, males, in drinking water, site: urinary bladder/ureter, lesion: several types, types named in the paper, dosed 40 weeks, study length 78 weeks) of 0.982 mg/kg/day and a TD50 (rat, strain F344/DuCrj, males, in drinking water, site: urinary bladder/ureter, lesion: transitional-cell carcinoma, dosed 40 weeks, study length 78 weeks) of 4.23 mg/kg/day.
In the case of CC(=O)Nc1cccc2c1Cc1ccccc1-2, the TD50 (rat, strain Buffalo, females, in feed, site: adrenal gland, lesion: carcinoma, dosed 47 weeks, study length 88 weeks) is reported as 54.8 mg/kg/day, the TD50 (rat, strain Buffalo, females, in feed, site: all sites, lesion: leukemia, indeterminate type, dosed 47 weeks, study length 88 weeks) is reported as 54.8 mg/kg/day and the TD50 (rat, strain Buffalo, females, in feed, site: ovary, lesion: granulosa-cell carcinoma, dosed 47 weeks, study length 88 weeks) is reported as 54.8 mg/kg/day. It also gave a TD50 (rat, strain Buffalo, females, in feed, site: pituitary gland, lesion: adenoma, dosed 47 weeks, study length 88 weeks) of 43.5 mg/kg/day and a TD50 (rat, strain Buffalo, females, in feed, site: uterus, lesion: carcinosarcoma, dosed 47 weeks, study length 88 weeks) of 54.8 mg/kg/day.
Work on CC(=O)Nc1nc(NC(C)=O)nc(-c2ccc([N+](=O)[O-])o2)n1 yielded a TD50 (rat, strain Sprague-Dawley, females, in feed, site: any site (literature study), lesion: several types, types named in the paper, dosed 46 weeks, study length 66 weeks) of 12.8 mg/kg/day, a TD50 (rat, strain Sprague-Dawley, females, in feed, site: mammary gland, lesion: adenocarcinoma, dosed 46 weeks, study length 66 weeks) of 29 mg/kg/day and a TD50 (rat, strain Sprague-Dawley, females, in feed, site: mammary gland, lesion: several types, types named in the paper, dosed 46 weeks, study length 66 weeks) of 14.1 mg/kg/day.
In the case of Brc1cc(Br)c2cccnc2c1, the carcinogen call (rat, strain Fischer 344, females, in feed, site: liver, lesion: hyperplastic nodule, dosed 104 weeks, study length 104 weeks) is reported as “negative (inactive)”, the TD50 (rat, strain Fischer 344, males, in feed, site: liver, lesion: hyperplastic nodule, dosed 104 weeks, study length 104 weeks) is reported as 754 mg/kg/day (inactive) and the TD50 (rat, strain Fischer 344, males, in feed, site: testis, lesion: interstitial-cell tumor, dosed 104 weeks, study length 104 weeks) is reported as 69.4 mg/kg/day (inactive).
In the case of Nc1cnn([C@@H]2O[C@H](CO)[C@@H](O)[C@H]2O)c(=O)n1, the carcinogen call (rat, strain Fischer 344, males, i.p., site: any site (literature study), lesion: one or several types, types not named, dosed 52 weeks, study length 52 weeks) is reported as “negative (inactive)”.
For S=C=NCCCCCCc1ccccc1, the carcinogen call (rat, strain Fischer 344, males, in feed, site: colon, lesion: one or several types, types not named, dosed 55 weeks, study length 55 weeks) was “negative (inactive)”, the carcinogen call (rat, strain Fischer 344, males, in feed, site: liver, lesion: hepatocellular adenoma, dosed 112 weeks, study length 112 weeks) was “negative (inactive)” and the carcinogen call (rat, strain Fischer 344, males, in feed, site: liver, lesion: hepatocellular carcinoma, dosed 112 weeks, study length 112 weeks) was “negative (inactive)”. For the same molecule, the carcinogen call (rat, strain Fischer 344, males, in feed, site: pancreas, exocrine, lesion: acinar-cell adenoma, dosed 112 weeks, study length 112 weeks) was “negative (inactive)” and the carcinogen call (rat, strain Fischer 344, males, in feed, site: pancreatic islets, lesion: islet-cell adenoma, dosed 112 weeks, study length 112 weeks) was “negative (inactive)”.
Molecule CC(=O)Nc1ccc(N=Nc2cc(C)ccc2O)cc1 has a TD50 (mouse, strain B6C3F1, females, in feed, site: all sites, lesion: leukemia + lymphoma, dosed 103 weeks, study length 105 weeks) of 1510 mg/kg/day, a TD50 (mouse, strain B6C3F1, females, in feed, site: all sites, lesion: lymphoma, dosed 103 weeks, study length 105 weeks) of 1680 mg/kg/day and a TD50 (mouse, strain B6C3F1, females, in feed, site: any site (literature study), lesion: several types, types named in the paper, dosed 103 weeks, study length 105 weeks) of 769 mg/kg/day. The TD50 (mouse, strain B6C3F1, females, in feed, site: liver, lesion: hepatocellular adenoma + hepatocellular carcinoma + neoplastic nodule, dosed 103 weeks, study length 105 weeks) was 1020 mg/kg/day, the TD50 (mouse, strain B6C3F1, females, in feed, site: liver, lesion: hepatocellular adenoma + hepatocellular carcinoma, dosed 103 weeks, study length 105 weeks) was 1020 mg/kg/day and the TD50 (mouse, strain B6C3F1, females, in feed, site: liver, lesion: hepatocellular adenoma, dosed 103 weeks, study length 105 weeks) was 1340 mg/kg/day. For the same molecule, the TD50 (mouse, strain B6C3F1, males, in feed, site: any site (literature study), lesion: several types, types named in the paper, dosed 103 weeks, study length 104 weeks) was 17200 mg/kg/day, the TD50 (mouse, strain B6C3F1, males, in feed, site: lung, lesion: alveolar/bronchiolar adenoma + alveolar/bronchiolar carcinoma, dosed 103 weeks, study length 104 weeks) was 2440 mg/kg/day and the TD50 (mouse, strain B6C3F1, males, in feed, site: lung, lesion: alveolar/bronchiolar adenoma, dosed 103 weeks, study length 104 weeks) was 2150 mg/kg/day (inactive). For the same molecule, the carcinogen call (rat, strain Fischer 344, females, in feed, site: any site (literature study), lesion: several types, types named in the paper, dosed 103 weeks, study length 104 weeks) was “negative (inactive)”, the TD50 (rat, strain Fischer 344, females, in feed, site: liver, lesion: hepatocellular adenoma + hepatocellular carcinoma + neoplastic nodule, dosed 103 weeks, study length 104 weeks) was 46800 mg/kg/day and the TD50 (rat, strain Fischer 344, males, in feed, site: liver, lesion: hepatocellular adenoma + hepatocellular carcinoma + neoplastic nodule, dosed 103 weeks, study length 104 weeks) was 833 mg/kg/day. The TD50 (rat, strain Fischer 344, males, in feed, site: liver, lesion: hepatocellular carcinoma + neoplastic nodule, dosed 103 weeks, study length 104 weeks) was 833 mg/kg/day, the TD50 (rat, strain Fischer 344, males, in feed, site: liver, lesion: neoplastic nodule, dosed 103 weeks, study length 104 weeks) was 380 mg/kg/day and the TD50 (rat, strain Fischer 344, males, in feed, site: stomach, lesion: all tumors, dosed 103 weeks, study length 104 weeks) was 4090 mg/kg/day.
